Data on 4 molecules can be found in paper PMC2927429, “Novel Naphthalene-Based Inhibitors of Trypanosoma brucei RNA Editing Ligase 1” (PLoS Neglected Tropical Diseases, 2010).

Read-outs that look alike come from different tables or passages of the source.

The target in this test is T1, RNA editing ligase 1 (TbREL1) (Trypanosoma brucei, UniProt P86926).
T1 construct: gene REL1; recombinant full-length TbREL1, C-terminal TAP tag, Sf9 cells
T1 sequence (P86926 1-469): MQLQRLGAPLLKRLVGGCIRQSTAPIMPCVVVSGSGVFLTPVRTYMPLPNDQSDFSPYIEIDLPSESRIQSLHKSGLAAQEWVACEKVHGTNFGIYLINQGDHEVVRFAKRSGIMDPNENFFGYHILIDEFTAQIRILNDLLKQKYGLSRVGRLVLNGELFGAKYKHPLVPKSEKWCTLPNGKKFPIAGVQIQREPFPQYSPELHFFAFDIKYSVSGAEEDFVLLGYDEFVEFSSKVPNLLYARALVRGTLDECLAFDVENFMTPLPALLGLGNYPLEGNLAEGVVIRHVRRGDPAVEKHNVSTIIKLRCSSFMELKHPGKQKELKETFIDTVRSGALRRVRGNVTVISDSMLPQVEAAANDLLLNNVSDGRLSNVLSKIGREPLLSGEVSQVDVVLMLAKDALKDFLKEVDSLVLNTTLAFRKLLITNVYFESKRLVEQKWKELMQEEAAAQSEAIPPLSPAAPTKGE
Briefly: inhibition of TbREL1 adenylylation with [α-32P]ATP, SDS/PAGE and phosphorimaging, […] Triton X-100. Format: biochemical.

On to `O=C(Nc1ccc2c(O)c(/N=N/c3ccc4c(O)cc(S(=O)(=O)O)cc4c3)c(S(=O)(=O)O)cc2c1)c1ccccc1` [V1, (E)-7-benzamido-4-hydroxy-3-((5-hydroxy-7-sulfonaphthalen-2-yl)diazenyl)naphthalene-2-sulfonic acid], for which the IC50 (read-out: IC50) was 2.16 ± 1.2 µM.

Turning to `Nc1ccc2c(O)c(/N=N/c3ccc4c(O)cc(S(=O)(=O)O)cc4c3)c(S(=O)(=O)O)cc2c1` [V2, (E)-7-amino-4-hydroxy-3-((5-hydroxy-7-sulfonaphthalen-2-yl)diazenyl)naphthalene-2-sulfonic acid], the IC50 (read-out: IC50) came out at 1.53 ± 1.17 µM.

For `O=S(=O)(O)c1cc(O)c2ccc(Nc3ccc4c(O)cc(S(=O)(=O)O)cc4c3)cc2c1` [V3, Di-J acid], the IC50 (read-out: IC50) came out at 8.36 ± 1.71 µM.

Regarding `O=S(=O)(O)c1cc(/N=N/c2c(O)ccc3ccccc23)c(O)c(/N=N/c2c(O)ccc3cc(S(=O)(=O)O)ccc23)c1` [V4, Mordant Black 25], the IC50 was 1.59 ± 1.1 µM.

The IC50 is the midpoint of a concentration-inhibition curve.
